Experimental data taken from ChEMBL document CHEMBL5316291 (J Med Chem, 2023).

Tests used:
[1] = target: T1, Poly [ADP-ribose] polymerase tankyrase-2 (Homo sapiens, UniProt Q9H2K2); experiment: Inhibition of human recombinant N-terminal GST-tagged PARP5b (667 to 1166 end residues) expressed in baculovirus infected Sf9 cells expression system incubated for 1 hr by ELISA assay
T1 sequence (Q9H2K2 whole entry): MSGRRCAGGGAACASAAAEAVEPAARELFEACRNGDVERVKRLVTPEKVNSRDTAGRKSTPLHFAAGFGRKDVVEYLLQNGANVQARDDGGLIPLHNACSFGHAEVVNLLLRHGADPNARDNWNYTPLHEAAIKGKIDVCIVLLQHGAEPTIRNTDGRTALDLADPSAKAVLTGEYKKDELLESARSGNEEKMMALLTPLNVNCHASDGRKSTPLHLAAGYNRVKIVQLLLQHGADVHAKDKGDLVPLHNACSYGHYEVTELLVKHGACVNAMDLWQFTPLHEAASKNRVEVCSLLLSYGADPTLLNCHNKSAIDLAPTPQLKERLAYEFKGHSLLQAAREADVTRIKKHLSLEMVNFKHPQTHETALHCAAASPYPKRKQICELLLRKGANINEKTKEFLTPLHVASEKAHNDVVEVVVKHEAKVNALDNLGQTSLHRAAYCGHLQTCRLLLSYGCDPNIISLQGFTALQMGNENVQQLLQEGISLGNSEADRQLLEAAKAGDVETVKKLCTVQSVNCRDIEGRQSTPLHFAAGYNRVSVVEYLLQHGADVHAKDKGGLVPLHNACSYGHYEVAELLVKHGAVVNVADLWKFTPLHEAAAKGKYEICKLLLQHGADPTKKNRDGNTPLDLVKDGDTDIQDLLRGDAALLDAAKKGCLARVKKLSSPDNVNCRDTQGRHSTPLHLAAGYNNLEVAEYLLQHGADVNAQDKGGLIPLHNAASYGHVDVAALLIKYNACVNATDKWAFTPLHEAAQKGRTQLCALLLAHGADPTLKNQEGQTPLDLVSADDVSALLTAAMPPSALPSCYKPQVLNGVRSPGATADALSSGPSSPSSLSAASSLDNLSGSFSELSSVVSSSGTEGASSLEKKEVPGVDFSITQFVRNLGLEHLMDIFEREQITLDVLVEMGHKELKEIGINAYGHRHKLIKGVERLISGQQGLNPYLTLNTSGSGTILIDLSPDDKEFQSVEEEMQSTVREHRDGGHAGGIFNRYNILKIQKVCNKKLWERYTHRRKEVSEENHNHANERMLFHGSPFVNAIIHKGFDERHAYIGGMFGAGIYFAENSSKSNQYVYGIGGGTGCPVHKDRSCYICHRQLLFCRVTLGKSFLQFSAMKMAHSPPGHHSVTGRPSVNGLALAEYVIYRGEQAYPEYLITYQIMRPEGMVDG

[2] = Clearance in ICR mouse at 10 mg/kg, po measured upto 24 hrs by LC-MS/MS analysis; assay type: ADME, organism-based; conditions: in vivo
[3] = target: T2, Poly [ADP-ribose] polymerase tankyrase-1 (Homo sapiens, UniProt O95271); experiment: Inhibition of human recombinant N-terminal GST-tagged PARP5a (1001 to 1327 end residues) expressed in baculovirus infected Sf9 cells expression system incubated for 1 hr by ELISA assay
T2 sequence (O95271 whole entry): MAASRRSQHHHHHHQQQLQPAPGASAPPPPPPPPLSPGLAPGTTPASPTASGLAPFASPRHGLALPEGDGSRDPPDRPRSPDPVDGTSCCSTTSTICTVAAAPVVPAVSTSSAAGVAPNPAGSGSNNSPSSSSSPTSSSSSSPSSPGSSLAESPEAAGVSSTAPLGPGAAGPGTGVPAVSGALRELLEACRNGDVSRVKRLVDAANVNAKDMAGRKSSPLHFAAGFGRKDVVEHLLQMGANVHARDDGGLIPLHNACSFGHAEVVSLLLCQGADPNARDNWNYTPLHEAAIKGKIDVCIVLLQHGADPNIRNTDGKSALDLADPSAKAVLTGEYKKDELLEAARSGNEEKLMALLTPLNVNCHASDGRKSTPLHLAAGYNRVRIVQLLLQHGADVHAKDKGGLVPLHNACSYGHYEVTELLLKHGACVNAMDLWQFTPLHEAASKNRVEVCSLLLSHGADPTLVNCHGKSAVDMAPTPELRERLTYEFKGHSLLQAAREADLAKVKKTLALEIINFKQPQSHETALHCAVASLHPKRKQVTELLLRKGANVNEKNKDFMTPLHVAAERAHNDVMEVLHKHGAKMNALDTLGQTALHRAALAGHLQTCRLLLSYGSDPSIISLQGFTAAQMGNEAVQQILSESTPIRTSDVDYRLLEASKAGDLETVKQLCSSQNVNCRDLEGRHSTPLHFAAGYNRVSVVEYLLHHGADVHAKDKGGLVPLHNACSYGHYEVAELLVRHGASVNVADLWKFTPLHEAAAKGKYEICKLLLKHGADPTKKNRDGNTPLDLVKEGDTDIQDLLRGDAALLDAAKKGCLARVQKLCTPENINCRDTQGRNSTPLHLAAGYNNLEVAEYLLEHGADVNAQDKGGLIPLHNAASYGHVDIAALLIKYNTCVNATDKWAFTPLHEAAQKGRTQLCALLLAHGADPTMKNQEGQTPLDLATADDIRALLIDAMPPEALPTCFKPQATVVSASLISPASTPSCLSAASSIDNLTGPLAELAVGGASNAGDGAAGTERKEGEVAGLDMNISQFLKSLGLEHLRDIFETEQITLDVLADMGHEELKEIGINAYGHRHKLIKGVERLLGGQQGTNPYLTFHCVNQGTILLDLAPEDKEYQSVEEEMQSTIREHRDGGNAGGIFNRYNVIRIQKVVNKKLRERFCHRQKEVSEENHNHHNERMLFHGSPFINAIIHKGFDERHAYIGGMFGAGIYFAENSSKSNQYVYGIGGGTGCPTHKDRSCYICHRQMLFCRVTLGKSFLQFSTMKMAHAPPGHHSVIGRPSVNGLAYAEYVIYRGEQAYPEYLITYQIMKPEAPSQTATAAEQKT

[4] = Apparent volume of distribution in ICR mouse at 10 mg/kg, po measured upto 24 hrs by LC-MS/MS analysis; assay type: ADME, organism-based; conditions: in vivo
[5] = Apparent volume of distribution in ICR mouse at 1 mg/kg, iv measured upto 24 hrs by LC-MS/MS analysis; assay type: ADME, organism-based; conditions: in vivo, read-out: Vz

In the case of `C[C@@H](CN1CC(C(=O)N2CCN(c3ncc(C(F)(F)F)cn3)CC2)C1)Nc1cn[nH]c(=O)c1C(F)(F)F`, the IC50 [1] is reported as 227 nM, the CL/F [2] is reported as 30.3 mL/min/kg and the IC50 [3] is reported as 174 nM. It also gave a Vz [4] of 4.5836 L/kg and a Vd [5] of 3.66 L/kg.
